# Test results taken from patent US20080312184A1 (priority 2005, published 2008).
# Tests used:
# [1] = system: powdery mildew pathogen (EBI resistant strain); assay: Control Test on Powdery Mildew of Cucumbers (EBI Resistant Strain); assay type: in vivo, cucumbers (cultivar: sagami-hanjiro); conditions: single active ingredient
# [2] = system: gray mold fungus (MBC resistant, dicarboximide-based chemical sensitive: RS strain); assay: Control Test on Gray Mold of Tomato at its Flowering Stage (RS Strain); assay type: in vivo, tomatoes (cultivar: House-Momotaro); conditions: Table 4, single active ingredient, sprayed twice, examined after 7 days
# [3] = Table 1, treated concentration 10 ppm, examined after 14 days
smiles,measurement,setting,value
"FC(F)C(F)(F)OCC(Cn1cncn1)c1ccc(Cl)cc1Cl (stereo not drawn) [Tetraconazole, tetraconazole]",Control Value,[1]; [3],34
"O=C(Nc1ccccc1-c1ccc(Cl)cc1)c1cccnc1Cl [Boscalid, boscalid]",Control Value,[2]; treated concentration 20 ppm,48
"Clc1nc(Cl)nc(Nc2ccccc2Cl)n1 [Anilazine, anilazine]",Control Value,[2]; treated concentration 50 ppm,40
"CC(C)(C)C(=O)C(Oc1ccc(Cl)cc1)n1cncn1 (stereo not drawn) [Triadimefon, triadimefon]",Control Value,[1]; [3],29
"CC(C)CC(C)c1sccc1NC(=O)c1cn(C)nc1C(F)(F)F (racemic) [P (penthiopyrad), (RS)—N-[2-(1,3-dimethylbutyl)thiophen-3-yl]-1-methyl-3-tri fluoromethyl-1H-pyrazole-4-carboxamide]",Control Value,[2]; treated concentration 10 ppm,56
same,Control Value,[1]; [3],68
same,Control Value,"[1]; Table 7 (Example B), treated concentration 10 ppm",68
"CNC(=O)/C(=N/OC)c1ccccc1COc1cc(C)ccc1C [Dimoxystrobin, dimoxystrobin]",Control Value,"[1]; Table 7 (Example B), treated concentration 15 ppm",60
"CCOC(=O)C1(C)OC(=O)N(c2cc(Cl)cc(Cl)c2)C1=O (stereo not drawn) [Chlozolinate, chlozolinate]",Control Value,[2]; treated concentration 40 ppm,42
"O=C(Cc1ccccc1)N/C(=N\OCC1CC1)c1c(C(F)(F)F)ccc(F)c1F [Cyflufenamid, cyflufenamid]",Control Value,"[1]; Table 1, treated concentration 5 ppm, examined after 14 days",66
"CCCCc1c(C)nc(NCC)nc1OS(=O)(=O)N(C)C [Bupirimate, bupirimate]",Control Value,"[1]; Table 1, treated concentration 20 ppm, examined after 14 days",45
"CC1(C(=O)Nc2ccc(O)c(Cl)c2Cl)CCCCC1 [Fenhexamid, fenhexamid]",Control Value,[2]; treated concentration 20 ppm,55
